In US20220168302A1, “SALTS OF A COMPOUND, CRYSTAL FORMS OF THE SALTS AND PREPARATION METHOD AND USE THEREOF” (Gan & Lee Pharmaceuticals Co., Ltd., priority 2019, published 2022):
In brackets after ≈: the same amount, converted by molar mass. Like-named read-outs stand apart in the source and are kept apart here.

Key:
Assay type in all cases: physicochemical
[1] = Solubility test in water, FaSSIF and FeSSIF (24 h, 37° C., HPLC concentration); conditions: initial feeding amount 10 mg/ml; for solubility at 24 h: 37 °C, thermodynamic from solid
Method: Experimental method: the solubility test was carried out in three solvents including water, fasted state simulated intestinal fluid (FaSSIF) and fed state simulated intestinal fluid (FeSSIF), to evaluate the solubilities of the salts of the present invention.
In the experiment, the sample and the solvent were mixed in a centrifuge tube (the initial feeding amount was 10 mg/ml), then the centrifuge tube was sealed and fixed on a rotating disk with a rotation speed of 25 rpm, and sampling was performed after rotating and mixing for 24 h at 37° C. The turbid sample was subjected to centrifugal separation, and the filtered supernatant was measured for HPLC concentration. If the sample solution was clear, the concentration of the obtained solution was measured.

[2] = Dynamic moisture adsorption (DVS) hygroscopicity test; conditions: for Hygroscopicity (moisture adsorption capacity): DVS, 25° C./80% RH; for Whether the crystal form has a change: XRPD before and after DVS test
Method: The moisture adsorption capacities of the representative salts and the free base of the above Examples and Comparative Examples were tested when the humidity reached 80% RH through a dynamic moisture adsorption (DVS) test at 25° C., so as to compare the hygroscopicities.
Experimental results: the test results are shown in Table 13, wherein, >15% means very hygroscopic, 2% to 15% means hygroscopic, 0.2% to 2% means slightly hygroscopic, and <0.2% means almost non-hygroscopic.

[3] = Solid-state stability test, one week, HPLC purity; conditions: for HPLC purity 1 week: open container; for HPLC purity, Initial purity: before storage
Method: Experimental method: appropriate amount of samples were respectively weighed and placed in open containers under the conditions of light illumination of 4500 lux, 25° C./60% RH and 40° C./75% RH to perform solid-state stability test evaluation for one week. One week later, the purities of the test samples were tested by HPLC to detect the change of purity. Three groups of parallel tests were set for each test condition.
High performance liquid chromatograms were collected on an Agilent 1100 HPLC.

[4] = Solubility test in water, FaSSIF and FeSSIF (24 h, 37° C., HPLC concentration); conditions: stated in background
[5] = fasted state simulated intestinal fluid
[6] = fed state simulated intestinal fluid
[7] = FeSSIF, fessif, fed state simulated intestinal fluid, read-out: Solubility in FeSSIF
[8] = FaSSIF, fassif, fasted state simulated intestinal fluid, read-out: Solubility in FaSSIF
[9] = water, water, water, read-out: Solubility in water

Solubility in FaSSIF [1, 5] [mg/mL] | Solubility in water ([1]; water) [mg/mL] | Hygroscopicity (moisture adsorption capacity) [2] [%] | Whether the crystal form has a change [2] | HPLC purity 1 week Relative to the initial purity ([3]; 25° C./60% RH) [%] | HPLC purity 1 week ([3]; 25° C./60% RH) [Area %] | HPLC purity 1 week Relative to the initial purity ([3]; 40° C./75% RH) [%] | HPLC purity 1 week ([3]; 40° C./75% RH) [Area %] | HPLC purity 1 week Relative to the initial purity ([3]; Light illumination 4500 lux) [%] | HPLC purity 1 week ([3]; Light illumination 4500 lux) [Area %] | HPLC purity, Initial purity [3] [Area %] | solubility at 24 h [1, 7] [mg/mL] | solubility at 24 h [1, 8] [mg/mL] | Compound | further results
6.8 (≈ 13.9 mM) | 6.5 (≈ 13.3 mM) | 0.22 | No change | 100.0 | 99.88 | 100.0 | 99.89 | 100.0 | 99.88 | 99.90 |  |  | CC1=Nc2c(F)cc(-c3nc(Nc4ccc(C5CCN(C)CC5)cn4)ncc3F)cc2C12CCCC2 [Adipate crystal form A, Adipate of 5-fluoro-4-(7′-fluoro-2′-methylspiro[cyclopentane-1,3′-indol]-5′-yl)-N-(5-(1-methylpiperidin-4-yl)pyridin-2-yl)pyrimidine-2-amine] | Solubility in FeSSIF [1, 6]: 11.6 mg/mL (≈ 23.7 mM); Whether the crystal form has a change ([2]; listed as adipate crystal form A): no change; HPLC purity 1 week Relative to the initial purity ([3]; 40° C./75% RH, listed as adipate crystal form A): 100%; HPLC purity 1 week Relative to the initial purity ([3]; Light illumination 4500 lux, listed as adipate crystal form A): 100%
0.19 (≈ 0.389 mM) | 0.075 (≈ 0.154 mM) | 0.10 | No change | 100.0 | 100.0 | 99.9 | 99.92 | 99.3 | 99.28 | 100.00 | 10.2 (≈ 20.9 mM) |  | CC1=Nc2c(F)cc(-c3nc(Nc4ccc(C5CCN(C)CC5)cn4)ncc3F)cc2C12CCCC2 [Free base crystal form A, 5-fluoro-4-(7′-fluoro-2′-methylspiro[cyclopentane-1,3′-indol]-5′-yl)-N-(5-(1-methylpiperidin-4-yl)pyridin-2-yl)pyrimidine-2-amine, reference compound] | HPLC purity 1 week Relative to the initial purity ([3]; Light illumination 4500 lux, listed as free base crystal form A): 99.3%; solubility [4]: 0.075 mg/mL (≈ 0.154 mM)
 | 6.3 | 0.35 | No change | 100.0 | 99.89 | 100.0 | 99.88 | 100.0 | 99.89 | 99.92 | 8 | 7.6 | CC1=Nc2c(F)cc(-c3nc(Nc4ccc(C5CCN(C)CC5)cn4)ncc3F)cc2C12CCCC2.O=C(O)/C=C/C(=O)O [Fumarate crystal form A, Fumarate of 5-fluoro-4-(7′-fluoro-2′-methylspiro[cyclopentane-1,3′-indol]-5′-yl)-N-(5-(1-methylpiperidin-4-yl)pyridin-2-yl)pyrimidine-2-amine] | Whether the crystal form has a change ([2]; listed as fumarate crystal form A): no change; HPLC purity 1 week Relative to the initial purity ([3]; 40° C./75% RH, listed as fumarate crystal form A): 100%; HPLC purity 1 week Relative to the initial purity ([3]; Light illumination 4500 lux, listed as fumarate crystal form A): 100%
5.9 | 0.48 |  |  | 100.0 | 99.48 | 100.0 | 99.48 | 100.0 | 99.46 | 99.48 |  |  | CC1=Nc2c(F)cc(-c3nc(Nc4ccc(C5CCN(C)CC5)cn4)ncc3F)cc2C12CCCC2.O=C(O)/C=C/C(=O)O [Fumarate crystal form C, Fumarate of 5-fluoro-4-(7′-fluoro-2′-methylspiro[cyclopentane-1,3′-indol]-5′-yl)-N-(5-(1-methylpiperidin-4-yl)pyridin-2-yl)pyrimidine-2-amine] | Solubility in FeSSIF [1, 6]: 13.6 mg/mL; HPLC purity 1 week Relative to the initial purity ([3]; 40° C./75% RH, listed as fumarate crystal form C): 100%; HPLC purity 1 week Relative to the initial purity ([3]; Light illumination 4500 lux, listed as fumarate crystal form C): 100%
 |  | 9.12 | Change |  |  |  |  |  |  |  |  |  | CC1=Nc2c(F)cc(-c3nc(Nc4ccc(C5CCN(C)CC5)cn4)ncc3F)cc2C12CCCC2.Cl [Hydrochloride crystal form B, Hydrochloride of 5-fluoro-4-(7′-fluoro-2′-methylspiro[cyclopentane-1,3′-indol]-5′-yl)-N-(5-(1-methylpiperidin-4-yl)pyridin-2-yl)pyrimidine-2-amine, reference compound] | Whether the crystal form has a change ([2]; listed as hydrochloride crystal form B): changed to amorphous
 |  | 2.00 | No change | 100.0 | 99.88 | 100.0 | 99.89 | 99.9 | 99.83 | 99.91 | 7.8 | 7.1 | CC1=Nc2c(F)cc(-c3nc(Nc4ccc(C5CCN(C)CC5)cn4)ncc3F)cc2C12CCCC2.O=C(O)/C=C\C(=O)O [Maleate crystal form B, Maleate of 5-fluoro-4-(7′-fluoro-2′-methylspiro[cyclopentane-1,3′-indol]-5′-yl)-N-(5-(1-methylpiperidin-4-yl)pyridin-2-yl)pyrimidine-2-amine] | solubility at 24 h [1, 9]: 12.9 mg/mL; Whether the crystal form has a change ([2]; listed as maleate crystal form B): no change; HPLC purity 1 week Relative to the initial purity ([3]; 40° C./75% RH, listed as maleate crystal form B): 100%
 |  | 12.02 | Change | 99.9 | 99.73 | 99.4 | 99.16 | 98.5 | 98.28 | 99.81 |  |  | CC1=Nc2c(F)cc(-c3nc(Nc4ccc(C5CCN(C)CC5)cn4)ncc3F)cc2C12CCCC2.CS(=O)(=O)O [Methanesulfonate crystal form A, Methanesulfonate of 5-fluoro-4-(7′-fluoro-2′-methylspiro[cyclopentane-1,3′-indol]-5′-yl)-N-(5-(1-methylpiperidin-4-yl)pyridin-2-yl)pyrimidine-2-amine, reference compound] | Whether the crystal form has a change ([2]; listed as methanesulfonate crystal form A): changed to amorphous
 |  | 0.33 | No change | 100.0 | 99.90 | 100.00 | 99.90 | 100.0 | 99.90 | 99.94 | 10.7 | 6.4 | CC1=Nc2c(F)cc(-c3nc(Nc4ccc(C5CCN(C)CC5)cn4)ncc3F)cc2C12CCCC2.O=C(O)CCC(=O)O [Succinate crystal form A, Succinate of 5-fluoro-4-(7′-fluoro-2′-methylspiro[cyclopentane-1,3′-indol]-5′-yl)-N-(5-(1-methylpiperidin-4-yl)pyridin-2-yl)pyrimidine-2-amine] | solubility at 24 h [1, 9]: 7.5 mg/mL; Whether the crystal form has a change ([2]; listed as succinate crystal form A): no change; HPLC purity 1 week Relative to the initial purity ([3]; 40° C./75% RH, listed as succinate crystal form A): 100%; HPLC purity 1 week Relative to the initial purity ([3]; Light illumination 4500 lux, listed as succinate crystal form A): 100%
